Measurements as given in article PMC10586451, “Design, Synthesis, Pharmacological Activities, Structure–Activity Relationship, and In Silico Studies of Novel 5-Substituted-2-(morpholinoimino)-thiazolidin-4-ones” (ACS Omega, 2023).
Where two headings read alike, the source gives them in different places.

Columns and labels:
[1] = target: T1, Acetylcholinesterase (AChE) (Electrophorus electricus, UniProt O42275); experiment: biochemical; settings: for IC50: mean ± SEM of three parallel measurements
T1 construct: Acetylcholinesterase (AChE) from electric eel; from tissue; host or cells: electric eel
Description: (§1) Anticholinesterase activity of all was performed according to the Ellman’s method using a 96-well microplate reader. Acetylcholinesterase (AChE) from electric eel and butyrylcholinesterase (BChE) from horse serum were used. Acetylthiocholine iodide and butyrylthiocholine chloride were utilized as substrates. DTNB (5,50-dithiobis(2-nitrobenzoic) acid was used as a coloring agent to measure the anticholinesterase activity.[43] Measurements were obtained in triplicate.

[2] = target: T2, butyrylcholinesterase (BChE) (Equus caballus, UniProt P81908); experiment: biochemical; settings: for IC50: mean ± SEM of three parallel measurements
T2 construct: butyrylcholinesterase (BChE) from horse serum; from tissue; host or cells: horse serum
Description: as §1

[3] = CUPRAC assay (Cu(II) reducing power); settings: concentration at 0.500 absorbance; mean ± SEM
Description: (§2) DMSO solutions of four different concentrations (12.5, 25, 50, and 100 μM) of the synthesized compound 1–26 were prepared. DMSO was used as a control, while BHA and α-TOC were used as antioxidant standards.

[4] = target: tyrosinase; format: biochemical; settings: mean ± SEM of three parallel measurements
[5] = target: urease (Canavalia ensiformis, UniProt P07374); experiment: biochemical
[6] = ABTS cation radical scavenging assay; settings: mean ± SEM of three parallel measurements
Description: as §2

[7] = DPPH radical scavenging assay; settings: mean ± SEM of three parallel measurements
Description: as §2

[8] = β-carotene-linoleic acid assay (antioxidant); settings: mean ± SEM of three parallel measurements
Description: as §2

[9] = Selectivity index: IC50 for BChE/IC50 for AChE
[10] = Selectivity index: IC50 for AChE/IC50 for BChE
[11] = urease activity IC50, mean ± SEM of three parallel measurements

T2 sequence (P81908 whole entry): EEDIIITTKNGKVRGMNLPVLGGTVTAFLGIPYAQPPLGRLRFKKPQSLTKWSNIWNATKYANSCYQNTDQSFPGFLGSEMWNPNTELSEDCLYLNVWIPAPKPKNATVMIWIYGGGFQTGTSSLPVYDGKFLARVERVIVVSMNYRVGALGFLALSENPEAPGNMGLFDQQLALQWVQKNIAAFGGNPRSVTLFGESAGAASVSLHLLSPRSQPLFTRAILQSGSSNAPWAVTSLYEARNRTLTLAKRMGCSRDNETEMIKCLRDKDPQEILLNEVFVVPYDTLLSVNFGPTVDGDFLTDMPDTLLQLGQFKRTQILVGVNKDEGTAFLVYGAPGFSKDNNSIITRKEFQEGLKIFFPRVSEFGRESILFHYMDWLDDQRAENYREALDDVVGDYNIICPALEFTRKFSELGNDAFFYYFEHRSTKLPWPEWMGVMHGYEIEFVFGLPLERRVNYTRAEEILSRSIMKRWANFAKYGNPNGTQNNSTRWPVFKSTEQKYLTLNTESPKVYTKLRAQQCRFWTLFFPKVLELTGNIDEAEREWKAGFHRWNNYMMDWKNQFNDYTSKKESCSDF
Sequence of urease (P07374 whole entry, looked up): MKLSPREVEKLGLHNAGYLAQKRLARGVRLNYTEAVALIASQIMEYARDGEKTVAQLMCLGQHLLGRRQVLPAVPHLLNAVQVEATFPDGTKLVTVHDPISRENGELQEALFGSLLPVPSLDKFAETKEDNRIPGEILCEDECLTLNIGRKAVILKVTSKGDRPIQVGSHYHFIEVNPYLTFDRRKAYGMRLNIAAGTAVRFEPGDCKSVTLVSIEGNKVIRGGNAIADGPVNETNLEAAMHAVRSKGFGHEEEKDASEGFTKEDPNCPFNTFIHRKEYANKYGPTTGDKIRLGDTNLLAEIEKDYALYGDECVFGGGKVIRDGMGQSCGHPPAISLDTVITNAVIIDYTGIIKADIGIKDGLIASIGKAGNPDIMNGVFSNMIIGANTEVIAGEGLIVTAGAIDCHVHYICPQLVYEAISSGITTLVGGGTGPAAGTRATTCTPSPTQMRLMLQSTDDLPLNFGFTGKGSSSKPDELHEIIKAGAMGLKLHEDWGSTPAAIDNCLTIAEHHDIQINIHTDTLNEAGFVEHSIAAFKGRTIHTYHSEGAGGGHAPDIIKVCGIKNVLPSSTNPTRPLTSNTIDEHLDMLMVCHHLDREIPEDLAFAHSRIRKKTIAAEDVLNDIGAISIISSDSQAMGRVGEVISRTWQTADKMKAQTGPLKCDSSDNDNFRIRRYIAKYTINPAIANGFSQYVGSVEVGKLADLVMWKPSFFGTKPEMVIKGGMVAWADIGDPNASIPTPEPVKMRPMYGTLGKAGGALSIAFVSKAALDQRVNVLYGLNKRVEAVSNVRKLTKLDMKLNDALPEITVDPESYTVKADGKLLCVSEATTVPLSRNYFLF
T1 sequence (O42275 24-633): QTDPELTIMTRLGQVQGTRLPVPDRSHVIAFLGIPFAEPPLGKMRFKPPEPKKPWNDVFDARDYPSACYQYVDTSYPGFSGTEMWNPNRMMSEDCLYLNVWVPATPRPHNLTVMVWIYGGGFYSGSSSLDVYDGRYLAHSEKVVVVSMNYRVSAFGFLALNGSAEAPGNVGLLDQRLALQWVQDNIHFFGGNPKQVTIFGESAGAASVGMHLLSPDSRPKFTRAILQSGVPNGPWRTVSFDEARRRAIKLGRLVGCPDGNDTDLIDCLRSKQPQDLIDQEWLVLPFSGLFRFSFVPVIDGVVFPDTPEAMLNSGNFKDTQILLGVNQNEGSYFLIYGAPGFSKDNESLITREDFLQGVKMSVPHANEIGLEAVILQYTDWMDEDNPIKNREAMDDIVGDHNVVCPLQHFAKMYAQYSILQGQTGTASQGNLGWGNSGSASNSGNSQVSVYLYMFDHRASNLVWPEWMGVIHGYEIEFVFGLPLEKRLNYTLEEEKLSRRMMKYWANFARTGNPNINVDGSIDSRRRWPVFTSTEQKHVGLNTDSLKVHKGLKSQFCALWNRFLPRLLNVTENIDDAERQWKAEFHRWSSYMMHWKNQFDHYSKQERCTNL

**Q.** With `O=C1C(=Cc2ccccc2)SC(=NN2CCOCC2)N1c1ccccc1` [Compound 3, 5-(Benzylidene)-2-(morpholinoimino)-3-phenylthiazolidine-4-one] as the molecule, how does the “SI for AChE” value [1, 9] read?
**A.** 1.42

**Q.** What about the IC50 [1] of the same molecule?
**A.** 34.2 ± 0.63 µM

**Q.** And the “SI for BChE” value [2, 10]?
**A.** 0.70

**Q.** And the IC50 [2]?
**A.** 48.72 ± 0.18 µM

**Q.** And the “CUPRAC assay A0.5” value [3]?
**A.** 35.89 ± 0.01 µM

**Q.** What about the IC50 [4] of the same molecule?
**A.** 29400 ± 490 µM

**Q.** And the IC50 [5, 11]?
**A.** 56.8 ± 0.15 µM

**Q.** What about the IC50 [6] of the same molecule?
**A.** 31.59 ± 0.04 µM

**Q.** What about the IC50 [7] of the same molecule?
**A.** 52.13 ± 0.29 µM

**Q.** What about the IC50 [8] of the same molecule?
**A.** 39.8 ± 0.67 µM

**Q.** With `O=C1C(=Cc2ccco2)SC(=NN2CCOCC2)N1c1ccccc1` [Compound 15, 5-(Furan-2-ylmethylene)-2-(morpholinoimino)-3-phenylthiazolidin-4-one] as the molecule, how does the “SI for AChE” value [1, 9] read?
**A.** 1.37

**Q.** And the IC50 [1]?
**A.** 27.4 ± 0.76 µM

**Q.** And the “SI for BChE” value [2, 10]?
**A.** 0.73

**Q.** What about the IC50 [2] of the same molecule?
**A.** 37.6 ± 0.61 µM

**Q.** And the “CUPRAC assay A0.5” value [3]?
**A.** 31.24 ± 0.00 µM

**Q.** What about the IC50 [4] of the same molecule?
**A.** 5190 ± 30 µM

**Q.** And the IC50 [5, 11]?
**A.** 46.4 ± 1.08 µM

**Q.** And the IC50 [6]?
**A.** 32.2 ± 0.87 µM

**Q.** And the IC50 [7]?
**A.** 35.05 ± 0.29 µM

**Q.** And the IC50 [8]?
**A.** 29.7 ± 0.34 µM

**Q.** What does the source list for `O=C1C(=Cc2ccccn2)SC(=NN2CCOCC2)N1c1ccccc1` [Compound 21, 2-(Morpholinoimino)-3-phenyl-5-(pyridin-2-ylmethylene)thiazolidin-4-one]?
**A.** SI for AChE [1, 9]: 1.36; IC50 [1]: 20.6 ± 1.02 µM; SI for BChE [2, 10]: 0.73; IC50 [2]: 28.1 ± 0.55 µM; CUPRAC assay A0.5 [3]: 30.77 ± 0.00 µM; IC50 [4]: 11200 ± 390 µM; IC50 [5, 11]: 27.8 ± 0.51 µM; IC50 [6]: 30.7 ± 0.56 µM; IC50 [7]: 35.01 ± 0.01 µM; IC50 [8]: 31.5 ± 0.48 µM

**Q.** For `O=C1C(=Cc2ccc(N(CCCl)CCCl)cc2)SC(=NN2CCOCC2)N1c1ccccc1` [Compound 11], which “SI for AChE” value [1] is on record?
**A.** 1.53

**Q.** What about the IC50 [1] of the same molecule?
**A.** 21.45 ± 0.06 µM

**Q.** And the “SI for BChE” value [2]?
**A.** 0.66

**Q.** What about the IC50 [2] of the same molecule?
**A.** 32.8 ± 0.48 µM

**Q.** And the “CUPRAC assay A0.5” value [3]?
**A.** 11.82 ± 0.00 µM

**Q.** What about the IC50 [4] of the same molecule?
**A.** 23400 ± 500 µM

**Q.** What about the IC50 [5, 11] of the same molecule?
**A.** 31.5 ± 0.49 µM

**Q.** What about the IC50 [6] of the same molecule?
**A.** 23.2 ± 0.34 µM

**Q.** And the IC50 [7]?
**A.** 24.6 ± 0.8 µM

**Q.** What about the IC50 [8] of the same molecule?
**A.** 11.9 ± 1.3 µM

**Q.** Which results are given for `Cc1cc(C(C)(C)C)c(O)c(C(C)(C)C)c1` [BHT, butylated hydroxytoluene, reference compound]?
**A.** CUPRAC assay A0.5 [3]: 3.80 ± 0.02 µM; IC50 [6]: 2.91 ± 0.55 µM; IC50 [7]: 55 ± 0.99 µM; IC50 [8]: 2.34 ± 0.09 µM

**Q.** With `COc1ccc(C=C2SC(=NN3CCOCC3)N(c3ccccc3)C2=O)cc1OC` [Compound 7, 5-(3,4-Dimethoxy-benzylidene)-2-(morpholinoimino)-3-phenylthiazolidin-4-one] as the molecule, how does the “SI for AChE” value [1, 9] read?
**A.** 1.34

**Q.** What about the IC50 [1] of the same molecule?
**A.** 30.4 ± 0.47 µM

**Q.** And the “SI for BChE” value [2, 10]?
**A.** 0.75

**Q.** And the IC50 [2]?
**A.** 40.88 ± 0.16 µM

**Q.** What about the “CUPRAC assay A0.5” value [3] of the same molecule?
**A.** 34.50 ± 0.01 µM

**Q.** What about the IC50 [4] of the same molecule?
**A.** 27720 ± 240 µM

**Q.** And the IC50 [5, 11]?
**A.** 54.3 ± 0.62 µM

**Q.** What about the IC50 [6] of the same molecule?
**A.** 31.55 ± 0.22 µM

**Q.** And the IC50 [7]?
**A.** 43.91 ± 0.29 µM

**Q.** And the IC50 [8]?
**A.** 38.24 ± 0.13 µM

**Q.** For `COc1ccc(C=C2SC(=NN3CCOCC3)N(c3ccccc3)C2=O)cc1` [Compound 6, 5-(4-(Methoxy)benzylidene)-2-(morpholinoimino)-3-phenylthiazolidin-4-one], which “SI for AChE” value [1, 9] is on record?
**A.** 1.27

**Q.** What about the IC50 [1] of the same molecule?
**A.** 29 ± 0.64 µM

**Q.** What about the “SI for BChE” value [2, 10] of the same molecule?
**A.** 0.79

**Q.** What about the IC50 [2] of the same molecule?
**A.** 36.81 ± 0.19 µM

**Q.** And the “CUPRAC assay A0.5” value [3]?
**A.** 32.68 ± 0.01 µM

**Q.** And the IC50 [4]?
**A.** 27990 ± 170 µM

**Q.** What about the IC50 [5, 11] of the same molecule?
**A.** 50.78 ± 0.08 µM

**Q.** And the IC50 [6]?
**A.** 30.6 ± 0.05 µM

**Q.** And the IC50 [7]?
**A.** 43.46 ± 0.14 µM

**Q.** What about the IC50 [8] of the same molecule?
**A.** 37.07 ± 0.22 µM

**Q.** Which “SI for AChE” value [1, 9] does the source give for `O=C1C(=Cc2ccc(Br)cc2)SC(=NN2CCOCC2)N1c1ccccc1` [Compound 4, 5-(4-Bromobenzylidene)-2-(morpholinoimino)-3-phenylthiazolidine-4-one] here?
**A.** 1.43

**Q.** What about the IC50 [1] of the same molecule?
**A.** 27.7 ± 0.51 µM

**Q.** What about the “SI for BChE” value [2, 10] of the same molecule?
**A.** 0.70

**Q.** And the IC50 [2]?
**A.** 39.6 ± 0.74 µM

**Q.** And the “CUPRAC assay A0.5” value [3]?
**A.** 21.18 ± 0.00 µM

**Q.** What about the IC50 [4] of the same molecule?
**A.** 28400 ± 900 µM

**Q.** And the IC50 [5, 11]?
**A.** 56.11 ± 0.22 µM

**Q.** And the IC50 [6]?
**A.** 23.7 ± 0.66 µM

**Q.** What about the IC50 [7] of the same molecule?
**A.** 40.2 ± 0.77 µM

**Q.** And the IC50 [8]?
**A.** 34.7 ± 0.15 µM

**Q.** Which results are given for `S=C(Nc1ccccc1)NN1CCOCC1` [Compound 1, 1-Morpholino-3-phenylthiyourea]?
**A.** SI for AChE [1, 9]: 0.91; IC50 [1]: 130 ± 0.18 µM; SI for BChE [2, 10]: 1.10; IC50 [2]: 118.5 ± 0.34 µM; CUPRAC assay A0.5 [3]: 45.18 ± 0.01 µM; IC50 [4]: 35130 ± 70 µM; IC50 [5, 11]: 82.54 ± 0.29 µM; IC50 [6]: 48.9 ± 0.78 µM; IC50 [7]: 253.4 ± 0.6 µM; IC50 [8]: 79.37 ± 0.38 µM

**Q.** For `Cc1ccsc1C=C1SC(=NN2CCOCC2)N(c2ccccc2)C1=O` [Compound 17, 5-((3-Methylthiophene-2-yl)methylene)-2-(morpholinoimino)-3-phenylthiazolidin-4-one], which “SI for AChE” value [1, 9] is on record?
**A.** 1.43

**Q.** What about the IC50 [1] of the same molecule?
**A.** 34.8 ± 0.53 µM

**Q.** What about the “SI for BChE” value [2, 10] of the same molecule?
**A.** 0.70

**Q.** And the IC50 [2]?
**A.** 49.8 ± 1.01 µM

**Q.** And the “CUPRAC assay A0.5” value [3]?
**A.** 27.65 ± 0.01 µM

**Q.** And the IC50 [4]?
**A.** 3220 ± 700 µM

**Q.** And the IC50 [5, 11]?
**A.** 40.22 ± 0.12 µM

**Q.** What about the IC50 [6] of the same molecule?
**A.** 33.2 ± 0.65 µM

**Q.** What about the IC50 [7] of the same molecule?
**A.** 36 ± 1 µM

**Q.** What about the IC50 [8] of the same molecule?
**A.** 36 ± 0.58 µM

**Q.** For `NC(N)=S` [thiourea, reference compound], which IC50 ([5]; mean ± SEM of three parallel measurements, read-out: urease activity IC50) is on record?
**A.** 24.2 ± 0.3 µM
